Reference: PubChem BioAssay (NCI)
Where “and” joins values, the source holds several entries; their conditions need not be identical. Equal values may be shown once.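 Cells were grown in 96-well plates and exposed to each compound for 48 hours at five concentrations; endpoints were interpolated linearly between bracketing concentrations, or set to the highest concentration if not reached. GI50 marks 50% less growth. Definition used: TGI = concentration required for complete inhibition of growth.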

How the values were obtained:
Assay in all cases: inhibition of tumour cell growth, NCI panel, 48 h
HOP-62 NSCLC = system: HOP-62 NSCLC
UACC-62 melanoma = system: UACC-62 melanoma
HT29 colon = system: HT29 colon
CCRF-CEM leukemia = system: CCRF-CEM leukemia
HL-60(TB) leukemia = system: HL-60(TB) leukemia
COLO 205 colon = system: COLO 205 colon
NCI-H522 lung = system: NCI-H522 lung
SN12C renal = system: SN12C renal
SF-268 CNS = system: SF-268 CNS
IGROV1 ovarian = system: IGROV1 ovarian

SMILES	GI50 (HOP-62 NSCLC)	TGI (HOP-62 NSCLC)	GI50 (UACC-62 melanoma)	TGI (UACC-62 melanoma)	GI50 (HT29 colon)	TGI (HT29 colon)	GI50 (CCRF-CEM leukemia)	TGI (CCRF-CEM leukemia)	GI50 (HL-60(TB) leukemia)	TGI (HL-60(TB) leukemia)	GI50 (COLO 205 colon)	TGI (COLO 205 colon)	GI50 (NCI-H522 lung)	TGI (NCI-H522 lung)	GI50 (SN12C renal)	TGI (SN12C renal)	GI50 (SF-268 CNS)	TGI (SF-268 CNS)	GI50 (IGROV1 ovarian)	TGI (IGROV1 ovarian)
CCOc1ccc2nc(SCc3nc4n(n3)S(=O)(=O)c3ccccc3N4C)sc2c1	50.8 µM	> 100 µM	> 100 µM	> 100 µM	> 100 µM	> 100 µM	64.2 µM	> 100 µM	82.7 µM	> 100 µM	> 100 µM	> 100 µM	86.4 µM	> 100 µM	> 100 µM	> 100 µM	57.6 µM	> 100 µM	> 100 µM	> 100 µM
COc1cc(-c2cc3ncccc3c3nc(N)c4cccnc4c23)cc(OC)c1OC	0.599 µM	87.1 µM	0.358 µM	19.4 µM	0.0762 µM	15.5 µM	0.481 µM	30.2 µM	0.217 µM	0.717 µM	0.246 µM	18.9 µM	0.0576 µM	12 µM	1.01 µM	> 100 µM	0.752 µM	> 100 µM	1.56 µM	> 100 µM
COc1cccc(-c2cc(=O)c3cc(OC)ccc3[nH]2)c1	0.401 µM	29.7 µM	0.0459 µM	> 100 µM		1.42 µM	0.0281 µM	0.248 µM	0.0194 µM	0.405 µM and 0.0536 µM	0.0741 µM	0.48 µM and 0.411 µM	0.121 µM and 0.0373 µM	0.392 µM and 0.175 µM	0.398 µM	47.7 µM	0.626 µM	24.2 µM	0.25 µM	> 100 µM
CO[C@H]1/C=C/O[C@@]2(C)Oc3c(C)c(O)c4c(c3C2=O)C(=O)C(/C=N/N(c2ccccc2)c2ccccc2)=C(NC(=O)/C(C)=C\C=C\[C@H](C)[C@H](O)[C@@H](C)[C@@H](O)[C@@H](C)[C@H](OC(C)=O)[C@@H]1C)C4=O	1.71 µM	3.17 µM	1.51 µM	2.92 µM	1.93 µM	3.84 µM	1.83 µM	4.84 µM	2.17 µM	4.7 µM	1.75 µM	3.46 µM	1.72 µM	3.42 µM	1.82 µM	3.33 µM	1.79 µM	3.37 µM	2.13 µM	4.23 µM
COc1cc(OC)cc(N(CCNC(C)C)c2ccc3ncc(-c4cnn(C)c4)nc3c2)c1	4.63 µM	20 µM	6.76 µM	21.5 µM	3.72 µM	15.7 µM	8.48 µM	47 µM	7.37 µM	22.7 µM	4.64 µM	18.5 µM	7.82 µM	23.4 µM	3.96 µM	15.9 µM	3.53 µM	19 µM	3.02 µM	11.1 µM
CCc1cccc(C)c1NC(=O)c1sc2nc3c(cc2c1N)CCCCC3	4.34 µM	> 100 µM	3.31 µM	> 100 µM	3.26 µM	24.7 µM	2.68 µM	> 100 µM	2.85 µM	11.8 µM	2.98 µM	15.2 µM	2.78 µM	41.9 µM	6 µM	> 100 µM	7.69 µM	> 100 µM	5.13 µM	> 100 µM
O=C(CO[N+](=O)[O-])Nc1ccc(C(=O)/C=C/c2ccc(Cl)cc2)cc1	3.11 µM	9.73 µM	2.76 µM	11 µM	2.36 µM	6.36 µM	2.73 µM	16.5 µM	3.59 µM	> 100 µM	2.57 µM	6.09 µM	2.31 µM	8.37 µM	3.14 µM	14.1 µM	2.62 µM	11.7 µM	13.4 µM	30 µM
Nc1ccc(C2=NN(c3ccccc3)C(c3ccc(Cl)cc3)C2)cc1 (stereo not drawn)	2.01 µM	5.05 µM	3.12 µM	12.9 µM	1.96 µM	4.49 µM	2.3 µM	6.17 µM	3.71 µM	22.8 µM	2.15 µM	4.54 µM	1.51 µM	3.27 µM	1.85 µM	4.53 µM	4.22 µM	19.8 µM	2.89 µM	8.15 µM
CC1CCC2(CC1)NN=c1s/c(=C\c3ccc(O)cc3)c(=O)n1N2 (stereo not drawn)		> 100 µM		> 100 µM		> 100 µM		> 100 µM		> 100 µM		> 100 µM		> 100 µM		> 100 µM		> 100 µM		> 100 µM
Cn1cc(C2=C(c3cn(CCCCN)c4ccccc34)C(=O)NC2=O)c2ccccc21	> 25 µM	> 25 µM	> 25 µM	> 25 µM	> 25 µM	> 25 µM	> 25 µM	> 25 µM	> 25 µM	> 25 µM	> 25 µM	> 25 µM	> 25 µM	> 25 µM	> 25 µM	> 25 µM	> 25 µM	> 25 µM	> 25 µM	> 25 µM
Cc1nc(SCC(=O)Nc2nc(-c3ccc(Cl)cc3)cs2)n(Nc2ccccc2)c1C	3.06 µM	9.63 µM	3.09 µM	16.1 µM	3.78 µM	15.4 µM	5.49 µM	> 100 µM	2.99 µM	> 100 µM	4.13 µM	14.5 µM	2.54 µM	13.7 µM	2.38 µM	10.1 µM	4.8 µM	20.1 µM	3.36 µM	20.6 µM
FC(F)c1nc2ccccc2n1-c1nc(N2CCOCC2)nc(N2CCOCC2)n1	0.495 µM and 1.1 µM	5.36 µM and 15.7 µM	0.0752 µM and 0.233 µM	0.86 µM and 1.94 µM	0.238 µM and 0.37 µM	> 100 µM	0.495 µM and 0.556 µM	> 100 µM	0.153 µM and 0.351 µM	> 100 µM	0.277 µM and 0.507 µM		0.222 µM and 0.295 µM	2.69 µM	0.247 µM and 0.332 µM	> 100 µM	0.361 µM and 0.6 µM	> 100 µM	0.0621 µM and 0.165 µM	0.369 µM and 0.593 µM
